These results are taken from BindingDB's records for doi:10.7270/Q2QF8R8B (Pcmd, 2008).

The structures appear in SMILES notation.

For this test, the target named is T1, Cathepsin G (Homo sapiens, UniProt P08311).
T1 sequence (P08311 whole entry): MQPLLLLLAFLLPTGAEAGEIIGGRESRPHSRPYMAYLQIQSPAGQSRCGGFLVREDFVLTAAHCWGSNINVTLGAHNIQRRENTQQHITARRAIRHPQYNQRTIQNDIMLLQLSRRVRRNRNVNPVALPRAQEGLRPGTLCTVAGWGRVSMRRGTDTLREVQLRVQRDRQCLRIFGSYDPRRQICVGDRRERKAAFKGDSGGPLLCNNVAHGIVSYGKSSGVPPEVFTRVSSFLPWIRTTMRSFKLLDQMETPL
Briefly: IC50 of CTSG protease blockers – biochemical, confirmation, dose response (AID 832).
Consider `COC(=O)c1sc(N2C(=O)C(=O)C(C(=O)c3ccc(C)o3)C2c2ccc(F)cc2)nc1C` (configuration not stated) [2-[2-(4-fluorophenyl)-4-hydroxy-3-[(5-methyl-2-furanyl)-oxomethyl]-5-oxo-2H-pyrrol-1-yl]-4-methyl-5-thiazolecarboxylic acid methyl ester], for which the IC50 (as a rule, the concentration needed to halve the response being measured) was more than 50 µM. In the case of `O=C(NCCN1CCOCC1)c1noc2c1CCc1ccccc1-2` [MLS000087427] it was 5.32 µM. In the case of `COc1ccc(C(=O)n2ccc(C)n2)cc1Br` [(3-bromanyl-4-methoxy-phenyl)-(3-methylpyrazol-1-yl)methanone] it was 41.5 µM; in that of `O=c1[nH]c(CN2CCc3ccccc3C2)nc2ccccc12` [MLS000088906], more than 50 µM; in that of `Nc1nncn1C(=O)c1cccs1` [(3-Amino-[1,2,4]triazol-4-yl)-thiophen-2-yl-methanone], 28.4 µM.

`Cc1cc(C)cc(C(=O)n2cnnc2N)c1` came in with an IC50 of 3.88 µM. In the case of `O=C(c1noc2c1CCc1ccccc1-2)N1CCc2ccccc2C1` [3-(3,4-dihydroisoquinolin-2(1H)-ylcarbonyl)-4,5-dihydronaphtho[2,1-d]isoxazole] it was 19.6 µM; in that of `O=c1oc(-c2cccc(S(=O)(=O)N3CCOCC3)c2)nc2ccccc12` [2-(3-morpholin-4-ylsulfonylphenyl)-3,1-benzoxazin-4-one], 4.05 µM.

As for `CC(C)[C@H](NC(=O)OC(C)(C)C)c1nnc(S(=O)(=O)Cc2c(F)cccc2Cl)o1` [SMR000044502], it took 9.38 µM to reach half-maximal inhibition (IC50).

The molecule `Cc1cnc(C(=O)Nc2ccccc2-c2ccc(C)o2)cn1` [5-Methyl-pyrazine-2-carboxylic acid [2-(5-methyl-furan-2-yl)-phenyl]-amide] returned an IC50 of more than 50 µM. In the case of `COc1ccc(C(=O)n2nc(-c3ccco3)nc2SC)cc1OC` [(3,4-dimethoxyphenyl)-[3-(2-furanyl)-5-(methylthio)-1,2,4-triazol-1-yl]methanone] it was 22 µM; in that of `COc1ccccc1-c1c(C#N)c(SCC(=O)N2CCCC2)nc(C)c1C(N)=O` [SMR000061200], more than 50 µM; in that of `COc1ccccc1-c1cc(C(=O)NCc2ccc(Cl)cc2)no1` [MLS000087096], 11.1 µM. In the case of `COc1ccc(S(=O)(=O)n2nc(OC(=O)c3ccc(C)cc3)cc2N)cc1` [4-Methyl-benzoic acid 5-amino-1-(4-methoxy-benzenesulfonyl)-1H-pyrazol-3-yl ester] it was 18.3 µM. `COCCNC(=O)c1noc2c1CCc1cc(OC)ccc1-2` [7-methoxy-N-(2-methoxyethyl)-4,5-dihydrobenz[g]indoxazene-3-carboxamide] returned an IC50 of 4.36 µM. In the case of `COc1ccc(C(=O)n2cnc(N)n2)cc1` [(3-amino-1,2,4-triazol-1-yl)-(4-methoxyphenyl)methanone] it was 1.31 µM; in that of `O=C(NCc1cccs1)c1cc(-c2cccs2)on1` [5-thien-2-yl-N-(thien-2-ylmethyl)isoxazole-3-carboxamide], 15.2 µM. In turn, `O=C(c1csc2c1CCCC2)n1cccn1` [1-(4,5,6,7-tetrahydro-1-benzothien-3-ylcarbonyl)-1H-pyrazole] came in with an IC50 of 3.61 µM. The figure for `COc1ccc2c(c1)CCc1c(C(=O)Nc3c(C)n(C)n(-c4ccccc4)c3=O)noc1-2` [MLS000087455] is 4.64 µM. The figure for `Cn1cnnc1SCc1ccc(C(=O)n2ncc(C#N)c2N)cc1` [5-amino-1-[4-[(4-methyl-1,2,4-triazol-3-yl)sulfanylmethyl]benzoyl]pyrazole-4-carbonitrile] is 3.86 µM; for `CC(C)(C)OC(=O)N[C@@H](Cc1ccccc1)c1nnc(S(=O)(=O)Cc2cccc(F)c2)o1` [tert-butyl N-[(1S)-1-[5-[(3-fluorophenyl)methylsulfonyl]-1,3,4-oxadiazol-2-yl]-2-phenylethyl]carbamate] it is 2.67 µM; for `Cc1ccsc1C=c1sc2ncnn2c1=O` [5-[(3-methyl-2-thienyl)methylene][1,3]thiazolo[3,2-b][1,2,4]triazol-6(5H)-one] it is 4.66 µM.

Consider `Nc1nc(C(=O)N2CCOCC2)nn1C(=O)c1ccc(Cl)cc1` [(5-azanyl-3-morpholin-4-ylcarbonyl-1,2,4-triazol-1-yl)-(4-chlorophenyl)methanone], for which the IC50 was 4.51 µM. In the case of `COc1ccc2c(c1)CCc1c(C(=O)NCc3cccnc3)noc1-2` [7-methoxy-N-(3-pyridinylmethyl)-4,5-dihydrobenzo[g][1,2]benzoxazole-3-carboxamide] it was 1.39 µM; in that of `Cc1ccc(NC(=O)Cc2nn(C)c(=O)c3ccccc23)cc1F` [MLS000047015], more than 50 µM. The figure for `O=C1CS/C(=N\c2ccc(O)cc2)N1c1ccc(O)cc1` [MLS000027731] is more than 50 µM. In the case of `COc1ccc2c(c1)CCc1c(C(=O)NCc3ccco3)noc1-2` [MLS000087436] it was 1.58 µM; in that of `Nc1cc(OC(=O)c2cccs2)nn1S(=O)(=O)c1ccccc1` [SMR000021562], 3.26 µM. `Cc1ccc(C(=O)n2cnnc2N)cc1C` [4-(3,4-dimethylbenzoyl)-4H-1,2,4-triazol-3-amine]: half-maximal inhibition (IC50) was put at 1.58 µM. The figure for `COc1ccc(-c2cc(C(=O)Nc3c(C)nn(Cc4ccccc4Cl)c3C)no2)cc1` [MLS000087058] is 44.4 µM; for `O=C(NCCc1ccccc1)c1noc2c1CCc1ccccc1-2` [MLS000087424] it is 2.48 µM; for `COc1ccc2c(c1)CCc1c(C(=O)Nc3cc(C)n(Cc4ccc(Cl)cc4)n3)noc1-2` [MLS000087458] it is 1.47 µM.
